Assays:
Cutibacterium acnes [1] = assay: Minimum Inhibitory Concentration of benzoyl peroxide on C. acnes; type: cell-based; settings: OTC product containing 10% BPO used; FIG. 4
Text: An OTC product containing 10% BPO was used in this experiment.
The advantage of SmartArrow is that it will deliver the active ingredients to where the bacteria reside. As a result, a much lower dosage of bioactive can be loaded in SmartArrow to achieve high killing of the bacteria compared to untargeted liposomes. As little as 0.002% BPO can achieve total killing of C. acnes (FIG. 4). Considering the BPO concentrations found in the retail market ranges from 2.5%-10%, which is ˜1000-fold higher than what is needed to kill the bacteria, it is not surprising to find most users of these retail products routinely suffer several side effects such as dry peeling skin. By using the SmartArrow approach, we can conservatively load 0.02% BPO into a liposome, which is 100× less than the retail products, to achieve total bacterial killing and reducing the side effects to a minimum.

[2] = test system: Pseudomonas aeruginosa strain PA14; assay: Confocal microscopy binding of EGFP-tagged lysin to P. aeruginosa; settings: 2.5 mg/ml; FIG. 1 F1-3
Description: (§1) To check the binding spectrum of the engineered lysin SmartNovaC, 2.5 mg/ml of SmartNovaC was applied against four C. acnes strains, Enterococcus faecalis strain OG1 RF, Staphylococcus epidermidis strain PCI1200 and Pseudomonas aeruginosa strain PA14. Since SmartNovaC was cloned in a plasmid that would co-express the EGFP tag, the fluorescent lysin can be visualized using confocal microscopy.

[3] = test system: Staphylococcus epidermidis strain PCI1200; assay: Confocal microscopy binding of EGFP-tagged lysin to S. epidermidis; settings: 2.5 mg/ml; FIG. 1 G1-3
Description: as §1

[4] = test system: Enterococcus faecalis strain OG1 RF; assay: Confocal microscopy binding of EGFP-tagged lysin to E. faecalis; settings: 2.5 mg/ml; FIG. 1 E1-3
Description: as §1

Cutibacterium acnes [5] = assay: Confocal microscopy binding of EGFP-tagged lysin to C. acnes; settings: 2.5 mg/ml; four C. acnes strains (6919, 11828, 11827, HC038-PAI); FIG. 1
Description: as §1
To further examine whether SmartNovaC is the only lysin that binds specifically to C. acnes, the binding of NovaC and another lysin DukeC2Rap that were synthesized with EGFP co-expressed were tested. DukeC2Rap lysin was obtained as CBD of Doucette lysin targeting Propionibacterium freudenreichii species, which is from the same genus as C. acnes. The nucleotide and amino acid sequences of the DukeC2Rap are provided below.
NovaC and DukeC2Rap at concentrations of 2.5 mg/ml and 1.3 mg/ml, respectively, were tested for binding against two C. acnes strains.

Row | Compound | BPO concentration achieving total killing of C. acnes (MIC) (Cutibacterium acnes [1]) [%] | binding to P. aeruginosa PA14 [2] | binding to S. epidermidis [3] | binding to E. faecalis OG1RF [4] | binding to C. acnes (green fluorescence) (Cutibacterium acnes [5])
1 | O=C(OOC(=O)c1ccccc1)c1ccccc1 [BPO, benzoyl peroxide] | 0.002 |  |  |  | 
2 | SmartNovaC (GSVNKLHHDVGVVQVQNGDLSKRVDALSWV) |  | could not bind | could not bind | could not bind | specific binding

Reference: patent US20250090461A1, “CELL-WALL BINDING PROTEIN SPECIFICALLY TARGETING CUTIBACTERIUM ACNES” (MASSACHUSETTS INSTITUTE OF TECHNOLOGY, priority 2022, published 2025)
